Laboratory results: US20130053435A1, “Methods of Treating Alcohol Intoxication, Alcohol Use Disorders and Alcohol Abuse Which Comprises the Administration of Dihydromyricetin” (priority 2011, published 2013)

Experiments:
[1] = Metabolic studies in rats; format: in vivo, rat; settings: DHM oral administration, 1 mg/kg
[2] = test system: PTZ-induced seizures in rats; assay: PTZ-induced seizures after EtOH withdrawal; format: in vivo, rat; settings: for PTZ-induced seizure duration: FIG. 12C
Procedure: Pentylenetetrazol (PTZ)-induced seizures were also measured in rats. […] PTZ dose used in this study (42 mg/kg in saline) was determined as the dose that induced seizures in 75% naïve rats. Briefly, after i.p. injection of PTZ, the time to onset and the duration of tonic-clonic seizures was determined as described previously. The researchers who conducted the animal behavior experiments were blind to treatment groups. Animals were used once only for any determination.
48 hr after injection, rats were sub-divided into 3 groups to measure signs of EtOH withdrawal.
As described herein, hyperexcitability was assayed with PTZ-induced seizures duration (FIG. 12C). PTZ induced 0.9±0.2 min seizures in subjects of the vehicle group and 6.5±1.1 min seizures in subjects of the EtOH group.

GABAARs = assay: Whole-cell patch-clamp, cultured hippocampal neurons 24 h after EtOH/DHM exposure; format: cell-based, rat; settings: 24 h withdrawal
Procedure: Control neurons were treated with corresponding vehicle as same procedure as EtOH-treated neurons. The concentration of 60 mM EtOH was selected in view of prior experiments. See Liang J et al (2007). Specifically, the concentration of 60 mM EtOH used to treat cultured neurons was chosen to match blood levels measured in adult rats after intoxication with gavage of 5 g/kg, which produced about 60 mM blood peak plasma [EtOH] lasting for about 2 to 3 hr and induced significant plasticity in GABAARs and tolerance.
Then, immediately before electrophysiological recording, cells grown on coverslips were transferred to a perfusion chamber (Warner Instruments) and visualized with an inverted microscope (TE200, Nikon). Whole-cell patch-clamp recordings were obtained from cultured neurons under voltage-clamp mode at room temperature (22-25° C.), at a holding potential of −70 mV. Cells were perfused with an extracellular solution (137 mM NaCl, 5 mM KCl, 2 mM CaCl2, 1 mM MgCl2, 20 mM glucose and 10 mM HEPES (310-320 Osm, pH adjusted to 7.40 with NaOH)). Glass pipettes were filled with the same internal solution as that in slice recordings, with an input resistance of 4-7 MΩ. GABAAR-mediated mIPSCs were recorded using the same pharmacological method as mentioned above. […] Electrical signals were amplified using a Multiclamp 200 B amplifier (Molecular Devices, USA). After establishing the whole-cell configuration, at least 10 min were allowed to elapse before the application of drug to allow the membrane patch to stabilize and exchange of ions between the recording electrode and the cytosol to occur. Data were acquired with pClamp software (Version 10.0, Molecular Devices, USA), digitized at 20 kHz (Digidata 1440A, Molecular Devices), and analyzed using the Clampfit software (Version 10.0, Molecular Devices) and the Mini Analysis Program (versions 6.0.7, Synaptosoft, Decatur, Ga.) using methods known in the art. See Hamann M, et al. (2002) Neuron 33(4):625-633; Stell B M and Mody I (2002) J Neurosci 22(10): RC223; and Liang (2007).

GABAAR α4 subunit = assay: Cell-surface biotinylation and Western blot in cultured hippocampal neurons; format: cell-based, rat; settings: 24 hr
Procedure: Western blots of the cultured neurons were performed and examined as described herein. Biotinylation assays for GABAARs of the cultured neurons were performed as described previously. See Chung W O, et al. (2000) Infect Immun 68(12):6758-6762. Briefly, the neurons in culture dishes were placed on ice and washed twice with ice cold PBS. Then the neurons were incubated for 30 min on ice with PBS containing 1 mg/ml sulfo-NHS-LC-biotin (ProteoChem). After quenching the biotin-reaction with Tris-buffered saline (TBS), neurons were lysed in 150 μl of modified RIPA-buffer (20 mM Tris-HCl (pH 7.5), 150 mM NaCl, 1 mM Na2 EDTA, 1 mM EGTA, 1% NP-40, 1% sodium deoxycholate, 2.5 mM sodium pyrophosphate, 1 mM b-glycerophosphate, 1 mM Na3VO4, and 1 μg/ml leupeptin). The homogenates were centrifuged for 15 min (14,000×g, 4° C.). An aliquot (10%) of the supernatant was removed to measure β-actin. The remaining supernatant was incubated with 60 μl of 50% neutravidin agarose (Pierce Chemical Company) for 4 hr at 4° C. and washed four times with lysis buffer. Agarose-bound proteins were taken up in 20 μl of SDS sample buffer and boiled. Western blots were performed as mentioned above.
The surface expression of α4 subunit in cultured neurons was measured using cell-surface biotinylation followed by Western blot analysis.

[3] = neurons treated with EtOH 60 mM + DHM

## O=C1c2c(O)cc(O)cc2O[C@H](c2cc(O)c(O)c(O)c2)[C@H]1O [DHM, (2R,3R)-3,5,7-trihydroxy-2-(3,4,5-trihydroxyphenyl)-2,3-dihydrochromen-4-one]
[1]
  metabolic change (food and water intake, urine volume and stool volume): no metabolic change
[2]; 24 hr after DHM 1 mg/kg i.p. alone
  PTZ-seizure duration: did not induce any significant or observable changes in seizure duration
[2]; 24 hr withdrawal from DHM+EtOH
  PTZ seizure incidence: 85%
[2]; 24 hr withdrawal from DHM+EtOH (1 mg/kg+3 g/kg, i.p.), PTZ 42 mg/kg
  PTZ-seizure duration: 0.9 ± 0.2 min
[2]; 48 hr withdrawal, EtOH+DHM group
  PTZ-induced seizure duration: 1.7 ± 0.8 min
[2]; 48 hr, DHM group
  PTZ-induced seizure duration: 0.6 ± 0.4 min
[2]; female rats, co-administration of DHM+EtOH
  EtOH intoxication/withdrawal-induced increases in PTZ-induced seizure duration and incidence, female rats: inhibits, reduces and/or prevents
GABAARs; DHM alone exposure
  GABAAR function after exposure/withdrawal: did not alter GABAAR function
GABAARs; [3]
  Itonic magnitude after acute EtOH (60 mM): 25.2±1.2 pA
  averaged Itonic magnitude: 11.2±0.6 pA
  mIPSC potentiation by EtOH: 8.3±9.4%
GABAAR α4 subunit; neurons treated with DHM
  α4 surface expression: 125.0±27.3 % of control
GABAAR α4 subunit; neurons treated with EtOH+DHM
  α4 subunit surface expression: 123.0±8.4 % of control
